These are literature values, as cited in EP4470382A1, “PLANT EXTRACT AND METHODS COMPRISING THEREOF” (FUNDACION UNIVERSITARIA SAN ANTONIO (UCAM), priority 2023, dated 2024).

For this series the following is noted: activity registered in BIOPEP for the sequence.
On to “LLYQEPVLGPVRGPFPIIV [peptide derived from bovine b-casein (1-28), identified in bovine casein hydrolysate, BIOPEP ID 8174]”, for which the Activity entry is “immunomodulat ing”.

As to “RPKHPIKHQGLPQEVLNENLLRF [Isracidin - antiviral, identified in bovine casein hydrolysate, BIOPEP ID 9530]”, the Activity result is given as “antiviral”.

On to “SQSKVLPVPQKAVPYPQ [Antioxidative peptide identified in bovine casein hydrolysate, BIOPEP ID 9907]”, for which the Activity entry is listed as “antioxidative”.

Turning to “VYQHQKAMKPWIQPKTKVIPYVRYL [(fr. 183-207) of bovine alpha s2-casein, identified in bovine casein hydrolysate, BIOPEP ID 5469]”, the Activity entry is “antibacterial”.

For the substance YQKFPQY, the Activity result is given as “ACE inhibitor”.
